{"source": "patent US4419352A", "about": "“Pyranoquinolinones and analogs thereof” (Fisons Limited, priority 1978, dated 1983)", "key": {"[1]": {"tested_on": "human volunteer suffering from specific allergic asthma", "test": "antigen inhalation provocation test (F E V1.0, percent protection)", "type": "in vivo", "settings": "F E V1.0, after drug administration", "procedure": "Clinical evaluation of the compounds was carried out using the antigen inhalation provocation test described below:\nThe human volunteer selected for test purposes suffered from specific allergic asthma. In this subject an asthma attack normally followed the inhalation of an antigen to which they were specifically sensitive. The degree of asthma provoked by this method can be measured by repeated examination of the air way resistance.\nThe antiallergic activity of a compound is estimated from the difference between the maximum percent F E V1.0 reduction following control and test provocations after drug administration conducted under identical experimental conditions.\nThe results of the tests are expressed as percent protection according to the formula: [formula]"}, "[2]": {"tested_on": "cardiovascular response to isoprenaline", "test": "cardiovascular response to isoprenaline in the cat", "type": "in vivo"}, "[3]": {"test": "sub-cutaneous LD50 in mice", "settings": "mouse, in vivo, sc"}, "anaesthatised cats": {"tested_on": "anaesthatised cats", "test": "blood pressure, heart rate and cardiac output of anaesthetised cats", "type": "in vivo, cat"}, "[4]": {"tested_on": "cardiovascular response to isoprenaline", "test": "cardiovascular response to isoprenaline in the rat", "type": "in vivo"}, "[5]": {"test": "sub-cutaneous LD50 in rats", "settings": "rat, in vivo, sc"}, "rats": {"tested_on": "rats", "test": "food choice (revulsion) test in rats", "type": "in vivo, rat"}}, "data": [{"smiles": "CCCc1c2nc(C(=O)[O-])cc(Cl)c2cc2c(=O)cc(C(=O)[O-])oc12.[Na+].[Na+]", "values": [{"measurement": "protection against asthma provoked by antigen inhalation", "setting": "[1]", "value": "very considerable protection"}, {"measurement": "alteration of cardiovascular response to isoprenaline", "setting": "[2]", "value": "did not alter"}, {"measurement": "LD50", "setting": "[3]", "value": "> 2000", "unit": "mg/kg"}, {"measurement": "effect on blood pressure", "setting": "anaesthatised cats", "value": "without effect"}, {"measurement": "effect on cardiac output", "setting": "anaesthatised cats", "value": "without effect"}, {"measurement": "effect on heart rate", "setting": "anaesthatised cats", "value": "without effect"}, {"measurement": "alteration of cardiovascular response to isoprenaline", "setting": "[4]", "value": "did not alter"}, {"measurement": "LD50", "setting": "[5]", "value": "> 2000", "unit": "mg/kg"}, {"measurement": "revulsion when rats choose between food source containing it and one which does not", "setting": "rats", "value": "does not produce revulsion"}]}]}
